The values that follow come from publication PMC7575509, “Phase I study of DFP-11207, a novel oral fluoropyrimidine with reasonable AUC and low Cmax and improved tolerability, in patients with solid tumors” (Investigational New Drugs, 2020).

Series [1] is described as follows: Plasma pharmacokinetics, Phase I Study (LC-MS/MS of DFP-11207 metabolites). The conditions noted are these: for AUC(0-t) / Cmax / Tmax / concentration at 2 day (Cycle 1): human, po.
A short description of series [2]: Plasma pharmacokinetics, Food Effect Study (fed vs fasted). The conditions noted are these: for detectability in plasma during fed and fasted dosing: 6 patients.
The nature of series [3]: Urine pharmacokinetics, Phase I Study. It counts as in vivo, human (patients). The following applies: Cycle 1, 0–48 hours after the DFP-11207 dose of 330 mg/m^2/day.
The conditions of series [4]: ref 18 (capecitabine), 19 (UFT), 20 (S-1); cited from earlier work.

“Also recorded” adds a separate entry of the source.

Regarding `O=c1[nH]cc(F)c(=O)[nH]1` [5-FU, 5-fluorouracil, reference compound], the “5-FU Cmax at steady state” value in series [1] (DFP-11207 330 mg/m^2/day orally every 12 hours) was less than 0.025 µg/mL. Besides, in series [1] (plasma, 330 mg/m2), the exposure AUC(0-t) (in general, exposure summed from dosing to a finite time, without extrapolation to infinity) was 0.22 µg·h/mL; the Cmax (in general, the highest concentration seen after dosing) stood at 0.00965 µg/mL; the time of peak concentration (Tmax) (commonly the time at which the peak concentration occurs) worked out at 24 h. In series [1] (plasma, 330 mg/m^2/day), the concentration at 2 day (Cycle 1) lay in the range of 0.00401 to 0.0255 µg/mL. For the same compound, in series [1] (plasma, 440 mg/m2), the Cmax worked out at 0.00875 µg/mL and the Tmax came out at 12 h. For the same compound, the concentration at 2 day (Cycle 1) in series [1] (plasma, 440 mg/m^2/day) is 0.00339 to 0.013 µg/mL. In addition, the “blood concentrations maintained throughout the dose cycle” value in series [1] (oral DFP-11207 at 330 and 440 mg/m^2/day) is recorded as “approximately 20 ng/mL”. For the same compound, the “AUClast, Mean (SD)” value in series [1] (plasma, Day 1, oral DFP-11207 440 mg/m^2) is on record as 3; 311 (214) ng·h/mL. In addition, the “difference in plasma levels (Cmax or AUClast) between fasted and fed conditions” value in series [2] (in vivo) is “no influence; also recorded: no clear differences”. The compound further came in with a urinary excretion in series [3] of 0.12%.

For the compound `Oc1cc(O)c(Cl)cn1` [CDHP, 5-chloro-2,4-dihydroxypyridine], in series [1] (plasma, 330 mg/m2), the AUC(0-t) is 2.41 µg·h/mL, the Cmax is 0.0904 µg/mL and the Tmax was 24 h. In series [1] (plasma, 440 mg/m2), the exposure AUC(0-t) was 2.81 µg·h/mL, the maximum concentration (Cmax) turned out to be 0.0936 µg/mL and the Tmax is 26 h. In addition, in series [2] (DFP-11207 300 mg twice daily), the “detectability in plasma during fed and fasted dosing” value is “detectable in plasma at all time points”. In series [3], this compound had a urinary excretion of 1.98%.

For `O=C(O)c1cc(O)nc(O)c1` [CTA, citrazinic acid], in series [1] (plasma, 330 mg/m2), the AUC(0-t) was 0.254 µg·h/mL, the Cmax amounted to 0.00981 µg/mL and the time of peak concentration (Tmax) was determined as 8 h. For the same compound, in series [1] (plasma, 440 mg/m2), the AUC(0-t) is 0.388 µg·h/mL, the Cmax amounted to 0.00972 µg/mL and the time of peak concentration (Tmax) was 4 h. For the same compound, the “difference in plasma levels (Cmax or AUClast) between fasted and fed conditions” value in series [2] (DFP-11207 300 mg twice daily, patients serving as their own controls) is on record as “no clear differences”. Besides, the urinary excretion in series [3] is 0.07%.

For `CCOCn1cc(F)c(=O)[nH]c1=O` [EM-FU, 1-ethoxymethyl-5-fluorouracil], in series [1] (plasma, 330 mg/m2), the AUC(0-t) worked out at 39.9 µg·h/mL, the Cmax came out at 1.31 µg/mL and the Tmax was found to be 48 h. For the same compound, in series [1] (plasma, 330 mg/m^2/day), the concentration at 2 day (Cycle 1) is 0.559 to 1.38 µg/mL. Further, in series [1] (plasma, 440 mg/m2), the AUC(0-t) was determined as 49.4 µg·h/mL, the Cmax is 1.4 µg/mL and the Tmax turned out to be 24 h. Also, the concentration at 2 day (Cycle 1) in series [1] (plasma, 440 mg/m^2/day) lay within 0.948 to 1.77 µg/mL. Besides, the “detectability in plasma during fed and fasted dosing” value in series [2] (DFP-11207 300 mg twice daily) is recorded as “detectable in plasma at all time points”. Also, the urinary excretion in series [3] is on record as 0.71%.

For the compound `CCCCCOC(=O)Nc1nc(=O)n([C@@H]2O[C@H](C)[C@@H](O)[C@H]2O)cc1F` [capecitabine], the primary dose-limiting toxicity entry in series [4] is recorded as “hand-foot syndrome”.
